Laboratory results from the OPERA property sets (Mansouri et al. 2018).

Conditions: for log10 BCF / log10 biotransformation half-life (days): fish

| Structure (SMILES) | boiling point | melting point | further results |
| --- | --- | --- | --- |
| ClC=CCc1ccccc1 | 211 °C |  |  |
| FC(F)=C(F)I | 30 °C |  |  |
| FCCCl | 53.1 °C | -50 °C |  |
| CN1CCN(C)C1=O | 221 °C | 8.2 °C |  |
| Fc1ccc(-c2ccc(F)cc2)cc1 | 254 °C | 94.5 °C |  |
| NN1CCCCC1 | 147 °C |  |  |
| ClC1=C(Cl)C2(Cl)C3CC(Cl)(Cl)CC3C1(Cl)C2(Cl)Cl (stereo not drawn) |  |  | log10 BCF: 4.3; log10 biotransformation half-life (days): 2.23 |
| CC(=O)O[C@@H]1CC2CCC1(C)C2(C)C (stereo partly drawn) | 221 °C | 29 °C | log10 vapour pressure (mmHg): -0.642 |
| CC1CNCCN1 (stereo not drawn) | 153 °C | 62 °C |  |
| C=Cc1ccc(OC)cc1 | 205 °C |  |  |
| CCOC(=O)C(Br)C(C)C (stereo not drawn) | 186 °C |  |  |
| CC(N)CCN (stereo not drawn) | 140 °C |  |  |
| C[C@]12C=CC(=O)C=C1CC[C@H]1[C@@H]3C[C@@H](O)[C@](O)(C(=O)CO)[C@@]3(C)C[C@H](O)[C@@]12F |  | 270 °C |  |
| Clc1cc2c(Cl)ccc(Cl)c2cc1Cl |  |  | log10 Koa: 8.13 |
| O=[N+]([O-])c1c(F)cc(F)cc1F | 184 °C | 3.5 °C |  |
| O=C(C(Br)Br)C(Br)(Br)Br |  | 79.5 °C |  |
| CN(C)CC#N | 138 °C |  |  |
| Clc1ccc(Oc2ccccc2)cc1Cl |  |  | log10 vapour pressure (mmHg): -3.19 |
| O=C(O)CCCc1c[nH]c2ccccc12 |  | 124 °C |  |
| CC(=O)c1ccc(F)cc1 | 196 °C |  |  |
| COc1cc2cc(c1Cl)N(C)C(=O)C[C@H](OC(=O)[C@H](C)N(C)C(C)=O)[C@]1(C)O[C@H]1[C@H](C)[C@@H]1C[C@@](O)(NC(=O)O1)C(OC)C=CC=C(C)C2 (stereo partly drawn) |  | 172 °C |  |
| O=C(O)CCCCCCCCCCO |  | 65.5 °C |  |
| O=C(F)C(F)(F)F | -59 °C |  | log10 Henry constant (atm·m³/mol): -3.48 |
| CCSC(=O)N(CC)C1CCCCC1 |  | 11.5 °C | log10 Koc (L/kg): 2.54; log10 vapour pressure (mmHg): -2.7; ready biodegradability: not readily biodegradable |

| Structure (SMILES) | boiling point | melting point | further results |
| --- | --- | --- | --- |
| Cc1ccc(OP(=O)(Oc2ccc(C)cc2)Oc2ccc(C)cc2)cc1 |  | 77.5 °C |  |
| O=S(=O)(Oc1ccc(Cl)cc1Cl)c1ccccc1 |  | 45.5 °C |  |
| Clc1ccc(Oc2cc(Cl)c(Cl)cc2Cl)c(Cl)c1 |  |  | log10 biotransformation half-life (days): 2.02 |
| CCCCCCCC(C)=O | 195 °C | -7.5 °C | log10 Henry constant (atm·m³/mol): -3.44; log10 vapour pressure (mmHg): -0.205 |
| CC(C)(OO)c1ccccc1 |  | -9 °C | log10 vapour pressure (mmHg): -2.49; ready biodegradability: not readily biodegradable |
| CC=CC(=O)Cl | 124 °C |  |  |
| N#CCON=C(C#N)c1ccccc1 |  | 55 °C | log10 vapour pressure (mmHg): -0.457 |
| CCCCC(C(C)=O)C(=O)OCC (stereo not drawn) | 222 °C |  |  |
| CC(C)[N+](C)(CCOC(=O)C1c2ccccc2Oc2ccccc21)C(C)C.[Br-] |  | 160 °C |  |
| CCN(CC)CCNc1ccc(CO)c2sc3ccccc3c(=O)c12 |  | 102 °C |  |
| CCCCCCC(C)CCCCCC |  | -37.2 °C |  |
| CCOC(=O)Nc1ccc(NCc2ccc(F)cc2)nc1N |  | 116 °C |  |
| Nc1ccc2[nH]ncc2c1 |  | 176 °C |  |
| CNc1cccc(C)c1 | 206 °C |  | ready biodegradability: not readily biodegradable; log10 BCF: 0.86; log10 biotransformation half-life (days): -0.79 |
| C1=Cc2ccccc2CC1 | 206 °C | -8 °C |  |
| CC(=O)NC(=O)c1ccccc1O |  | 148 °C |  |
| CC(C)(N=C(O)C(Br)C(C)(C)C)c1ccccc1 (stereo not drawn) |  | 180 °C |  |
| ClC[Si](Cl)(Cl)Cl | 118 °C |  |  |
| CNC[C@H](O)c1ccc(O)c(O)c1 |  | 212 °C |  |
| CCCCCCC(=O)OCCC | 208 °C | -63.5 °C |  |
| CCC1CCNCC1 | 154 °C |  |  |
| Cc1ccc2occc2c1 | 198 °C |  |  |
| CCCCCCN(C)C(=O)COC(=O)c1ccccc1 |  | 100 °C |  |
| ICCCCCCI |  | 9.5 °C |  |

| Structure (SMILES) | boiling point | melting point | further results |
| --- | --- | --- | --- |
| CCCCCCC(C)N (stereo not drawn) | 165 °C |  |  |
| Cc1cc(C)c(Br)c(C)c1 | 225 °C | -1 °C |  |
| CCOC(=O)N1CCNCC1 | 237 °C |  |  |
| CC(O)CN(CC(C)O)CC(C)O (stereo not drawn) | 305 °C | 45 °C | ready biodegradability: not readily biodegradable; log10 BCF: -0.24 |
| NC(=O)c1ccc(F)cc1 |  | 156 °C |  |
| CC(=O)OCC(COC(C)=O)OC(C)=O | 259 °C |  | log10 vapour pressure (mmHg): -2.61; ready biodegradability: readily biodegradable |
| BrC(Br)C(Br)Br | 244 °C | 0 °C | log10 vapour pressure (mmHg): -1.7; ready biodegradability: not readily biodegradable; log10 BCF: 0.74 |
| CC(C)COC=O | 98.2 °C | -95.8 °C | log10 vapour pressure (mmHg): 1.6 |
| CC(C)=NNC(N)=S |  |  | ready biodegradability: not readily biodegradable |
| c1ccc2c(c1)Oc1ccccc1O2 |  | 122 °C | log10 vapour pressure (mmHg): -3.38 |
| OCC(CO)(CO)COCC(CO)(CO)CO |  | 221 °C | ready biodegradability: not readily biodegradable |
| CCOC(=O)CI | 179 °C |  | log10 vapour pressure (mmHg): -0.195 |
| Brc1cc(Br)c(Oc2cc(Br)c(Br)cc2Br)c(Br)c1 |  |  | logP: 7.82; log10 BCF: 6.15; log10 biotransformation half-life (days): 2.03 |
| O=C(O)/C(=C\c1ccccc1)c1ccccc1 |  | 172 °C |  |
| CCCCC(C)(C)CCC | 158 °C |  |  |
| Oc1cccc2[nH]ccc12 |  | 100 °C |  |
| O=C1CCCCCC1c1ccccc1 (stereo not drawn) |  | 22.2 °C |  |
| CCCCCCCCCCC=O |  | -4 °C |  |
| N#Cc1ccccn1 | 224 °C | 29 °C |  |
| O=[N+]([O-])c1cccc2ccccc12 | 304 °C | 61 °C | log10 Henry constant (atm·m³/mol): -5.75; log10 vapour pressure (mmHg): -3.32 |
| CCc1cnccn1 | 152 °C |  | log10 Henry constant (atm·m³/mol): -5.61 |
| NS(=O)(=O)c1cc2c(s1)SCCC2=O |  | 222 °C |  |
| Nc1ccc(C(=O)O)cc1 |  | 188 °C | log10 Koc (L/kg): 2.5; ready biodegradability: readily biodegradable |
| Cc1cc(O)c2c(O)c3c(O)cccc3cc2c1 |  | 204 °C |  |

| Structure (SMILES) | boiling point | melting point | further results |
| --- | --- | --- | --- |
| C=CCCCC | 63.4 °C | -140 °C | log10 Koa: 2.41; log10 vapour pressure (mmHg): 2.26; ready biodegradability: readily biodegradable |
| Clc1cc(Cl)c(OCC#CI)cc1Cl |  | 114 °C |  |
| c1ccc(N2CN(c3ccccc3)CN(c3ccccc3)C2)cc1 |  | 144 °C |  |
| CCN(Cc1ccc(Cl)nc1)/C(=C/[N+](=O)[O-])NC |  |  | log10 vapour pressure (mmHg): -11.1 |
| CCc1cccc(N)c1 | 214 °C | -64 °C |  |
| NC(=O)c1ccccc1Cl |  | 143 °C | log10 Koc (L/kg): 1.51 |
| CNc1ccc(C)cc1 | 210 °C |  |  |
| BrCC=Cc1ccccc1 |  | 34 °C |  |
| C=CCCCCCCC=C | 167 °C |  |  |
| CCCCCCCCCCCCCCCCCCI | 383 °C | 34 °C | log10 vapour pressure (mmHg): -5.72 |
| C=CCC(=O)OCC | 119 °C |  |  |
| COCC1CO1 (stereo not drawn) | 113 °C |  |  |
| C=CCCC(=C)C | 88.1 °C | -129 °C |  |
| CCC(C)c1cc([N+](=O)[O-])cc([N+](=O)[O-])c1OC(C)=O (stereo not drawn) |  | 26 °C | log10 vapour pressure (mmHg): -3.22 |
| Clc1cc2oc3c(Cl)c(Cl)ccc3c2c(Cl)c1Cl |  | 206 °C | log10 vapour pressure (mmHg): -8.65 |
| Cc1ccc[nH]c1=O | 289 °C | 142 °C |  |
| N#CC1CCC1 | 150 °C |  |  |
| CC(Br)C(=O)O (stereo not drawn) | 203 °C |  |  |
| CCCCCCCCI | 226 °C | -45.7 °C | log10 vapour pressure (mmHg): -0.602 |
| FC(F)(F)C(F)(F)C(F)(F)C(F)(F)C(F)(F)F | 29.2 °C | -100 °C |  |
| Cc1ccc(C(=O)O)cc1C |  | 165 °C |  |
| c1cc(OCC2CO2)cc(OCC2CO2)c1 (stereo not drawn) |  | 42.5 °C |  |
| CC(=O)c1cccc(N)c1 | 290 °C | 98.5 °C |  |
